Where a name gives a salt, the structure may show the parent alone. Read-outs that look alike come from different tables or passages of the source.
Tests used:
JAK2 = JAK2 (Homo sapiens (Human), UniProt O60674); test: JAK Caliper Enzyme Assay at 1 mM ATP (JAK2); assay type: biochemical; conditions: Caliper assay at 1 mM ATP
[1] = system: rhIL-2 stimulated STAT5 phosphorylation in isolated human T cells; test: Human T Cell Assay: Inhibition of pSTAT5; assay type: cell-based
Description: Human T Cell Assay: Inhibition of pSTAT5
An assay measuring the efficacy of JAK inhibitors on the functional response of recombinant human interleukin-2 (rhIL-2) stimulated STAT5 phosphorylation in isolated human T cells.
Human whole blood from individual donors was collected from the phlebotomy unit on-site. Peripheral venous blood (30-60 mL) from healthy volunteers of either sex was used as the source of T cells. T cell isolation from venous whole blood is routinely performed in a class II microbiological safety cabinet. Each sample was collected into between 3 and 6 10 mL Sodium Heparin Vacutainer tubes (BD #367874). The blood was poured into sterile 50 mL conicals (Corning #430828) and incubated with the T cell Rosette Sep Cocktail (Stemcell Technologies #15061) at 50 μL/mL antibody/blood ratio for 20 min. with shaking at room temperature. The blood/antibody mixture was then diluted 1:2 with PBS (Pfizer media prep)/2% FBS (Sigma #F4135) and 30 mL of the mixture was layered onto 15 mL Ficoll-Hypaque (GE Healthcare #17-1440-03) in 50 mL conical tubes. The tubes were then centrifuged at 1200×g for 20 min. at room temperature with no brake. Following centrifugation the T cells formed a buffy coat between the Ficoll-Hypaque and plasma layers. The plasma above the buffy coats was removed to within 5 mm of the buffy coat using a sterile Pasteur pipette. The buffy coats were then collected into fresh sterile 50 mL conical tubes containing 25 mL PBS/2% FBS (2 buffy coats per 50 mL conical). PBS/2% FBS was added to the buffy coat cells such that the final volume in the tube was 50 mL. The tubes were then centrifuged at 200×g for 15 min. at room temperature. The supernatant was discarded and the pellet re-suspended in 10-20 mL of DMEM (Pfizer media prep) Assay media/0.2% BSA (Miltenyi #130-091-376). A differential cell count was performed using a haemacytometer and cells were diluted to 1.1×10^6 T cells/ml in DMEM/0.2% BSA media. Compounds (10 mM-0.3 μM) were diluted with Hanks Balanced Salt Solution (HBSS) (Sigma #H6648) at 1:100 dilution. Immediately following cell isolation and compound dilution, 90 μl/well of T cells (˜1×10^6/ml) in assay medium (DMEM+0.2% BSA) was added to the VWR Deep well V bottom plate (#3906-520-300). 10 μl/well of compound (final concentration range of 10 μM-0.3 nM with 0.1% DMSO) or 0.1% DMSO in HBSS as controls was added to the appropriate wells. Plates were incubated for 1 hour at 37° C., 5% CO2 incubator. 10 μl of 3.3 μg/mL rhIL-2 (R&D Systems #202-IL) was added to the cells (300 ng/ml final assay concentration). Wells containing T cells, medium with 0.1% DMSO and no rhIL-2 were used as background controls. […]
(§1) Data were collected and transformed into percent inhibition and calculated using the following formula: […]

JAK3 = JAK3 (Homo sapiens (Human), UniProt P52333); test: JAK Caliper Enzyme Assay at 1 mM ATP (JAK3); assay type: biochemical; conditions: Caliper assay at 1 mM ATP
JAK3, sequence (P52333 whole entry, species assumed): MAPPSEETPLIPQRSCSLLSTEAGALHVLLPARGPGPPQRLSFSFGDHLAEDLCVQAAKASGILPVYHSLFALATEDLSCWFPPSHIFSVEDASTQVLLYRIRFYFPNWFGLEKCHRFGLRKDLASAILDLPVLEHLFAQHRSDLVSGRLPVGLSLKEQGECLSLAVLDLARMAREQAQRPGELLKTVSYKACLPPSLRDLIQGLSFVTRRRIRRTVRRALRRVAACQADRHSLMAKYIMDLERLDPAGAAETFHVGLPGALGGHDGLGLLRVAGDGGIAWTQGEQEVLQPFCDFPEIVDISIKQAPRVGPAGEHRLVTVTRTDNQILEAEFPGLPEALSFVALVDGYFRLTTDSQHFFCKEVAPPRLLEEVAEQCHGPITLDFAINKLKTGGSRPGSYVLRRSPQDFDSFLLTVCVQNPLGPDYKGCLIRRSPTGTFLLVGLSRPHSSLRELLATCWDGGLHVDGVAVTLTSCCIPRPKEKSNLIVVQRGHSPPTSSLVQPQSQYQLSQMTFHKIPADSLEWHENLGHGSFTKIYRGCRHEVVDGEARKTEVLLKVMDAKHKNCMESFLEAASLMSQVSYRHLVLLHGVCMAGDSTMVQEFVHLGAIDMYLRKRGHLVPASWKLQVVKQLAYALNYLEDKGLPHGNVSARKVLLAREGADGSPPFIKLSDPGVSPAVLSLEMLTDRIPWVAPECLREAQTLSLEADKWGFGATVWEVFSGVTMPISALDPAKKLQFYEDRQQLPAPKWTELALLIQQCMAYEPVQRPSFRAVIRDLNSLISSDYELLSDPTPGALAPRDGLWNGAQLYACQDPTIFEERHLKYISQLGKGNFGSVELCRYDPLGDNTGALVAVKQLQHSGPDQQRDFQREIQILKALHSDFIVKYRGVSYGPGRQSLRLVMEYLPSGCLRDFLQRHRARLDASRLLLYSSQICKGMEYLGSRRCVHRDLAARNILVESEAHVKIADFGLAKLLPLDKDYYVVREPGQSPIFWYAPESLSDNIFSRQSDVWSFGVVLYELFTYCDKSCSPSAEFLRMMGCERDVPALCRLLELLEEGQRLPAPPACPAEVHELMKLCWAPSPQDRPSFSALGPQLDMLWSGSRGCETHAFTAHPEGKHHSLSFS

JAK1 = JAK1 (Homo sapiens (Human), UniProt P23458); test: JAK Caliper Enzyme Assay at 1 mM ATP (JAK1); assay type: biochemical; conditions: Caliper assay at 1 mM ATP
JAK1, sequence (P23458 whole entry, species assumed): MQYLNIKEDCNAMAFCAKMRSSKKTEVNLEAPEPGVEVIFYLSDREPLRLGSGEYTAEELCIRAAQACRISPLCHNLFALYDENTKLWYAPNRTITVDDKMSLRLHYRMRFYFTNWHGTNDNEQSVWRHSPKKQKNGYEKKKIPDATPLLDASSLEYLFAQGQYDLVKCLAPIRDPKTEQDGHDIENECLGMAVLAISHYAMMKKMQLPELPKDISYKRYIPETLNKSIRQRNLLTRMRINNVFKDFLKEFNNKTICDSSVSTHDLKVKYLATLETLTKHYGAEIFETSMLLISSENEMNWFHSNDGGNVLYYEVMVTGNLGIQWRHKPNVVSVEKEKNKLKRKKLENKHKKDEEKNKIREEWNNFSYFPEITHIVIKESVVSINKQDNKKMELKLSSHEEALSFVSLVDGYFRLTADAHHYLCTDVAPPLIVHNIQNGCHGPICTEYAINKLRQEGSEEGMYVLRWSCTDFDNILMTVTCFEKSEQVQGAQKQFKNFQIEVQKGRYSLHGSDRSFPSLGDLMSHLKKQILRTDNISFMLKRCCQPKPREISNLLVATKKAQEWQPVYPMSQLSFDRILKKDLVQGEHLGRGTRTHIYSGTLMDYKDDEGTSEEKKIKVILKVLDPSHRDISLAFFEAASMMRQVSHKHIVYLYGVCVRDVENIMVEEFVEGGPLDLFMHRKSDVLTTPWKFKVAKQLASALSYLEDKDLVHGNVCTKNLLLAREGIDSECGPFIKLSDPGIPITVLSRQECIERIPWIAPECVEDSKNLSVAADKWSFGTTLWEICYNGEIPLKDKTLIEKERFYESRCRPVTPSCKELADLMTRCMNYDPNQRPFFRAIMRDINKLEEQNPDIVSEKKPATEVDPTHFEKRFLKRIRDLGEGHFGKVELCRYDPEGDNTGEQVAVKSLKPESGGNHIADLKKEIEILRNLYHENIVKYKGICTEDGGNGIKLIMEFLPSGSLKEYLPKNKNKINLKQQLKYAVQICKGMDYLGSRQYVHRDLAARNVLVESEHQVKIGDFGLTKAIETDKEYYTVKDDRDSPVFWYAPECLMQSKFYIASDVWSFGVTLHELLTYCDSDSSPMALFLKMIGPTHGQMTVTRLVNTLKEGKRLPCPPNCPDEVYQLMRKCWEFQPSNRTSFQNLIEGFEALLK

TYK2 = TYK2 (Homo sapiens (Human), UniProt P29597); test: JAK Caliper Enzyme Assay at 1 mM ATP (TYK2); assay type: biochemical; conditions: Caliper assay at 1 mM ATP
TYK2, sequence (P29597 whole entry, species assumed): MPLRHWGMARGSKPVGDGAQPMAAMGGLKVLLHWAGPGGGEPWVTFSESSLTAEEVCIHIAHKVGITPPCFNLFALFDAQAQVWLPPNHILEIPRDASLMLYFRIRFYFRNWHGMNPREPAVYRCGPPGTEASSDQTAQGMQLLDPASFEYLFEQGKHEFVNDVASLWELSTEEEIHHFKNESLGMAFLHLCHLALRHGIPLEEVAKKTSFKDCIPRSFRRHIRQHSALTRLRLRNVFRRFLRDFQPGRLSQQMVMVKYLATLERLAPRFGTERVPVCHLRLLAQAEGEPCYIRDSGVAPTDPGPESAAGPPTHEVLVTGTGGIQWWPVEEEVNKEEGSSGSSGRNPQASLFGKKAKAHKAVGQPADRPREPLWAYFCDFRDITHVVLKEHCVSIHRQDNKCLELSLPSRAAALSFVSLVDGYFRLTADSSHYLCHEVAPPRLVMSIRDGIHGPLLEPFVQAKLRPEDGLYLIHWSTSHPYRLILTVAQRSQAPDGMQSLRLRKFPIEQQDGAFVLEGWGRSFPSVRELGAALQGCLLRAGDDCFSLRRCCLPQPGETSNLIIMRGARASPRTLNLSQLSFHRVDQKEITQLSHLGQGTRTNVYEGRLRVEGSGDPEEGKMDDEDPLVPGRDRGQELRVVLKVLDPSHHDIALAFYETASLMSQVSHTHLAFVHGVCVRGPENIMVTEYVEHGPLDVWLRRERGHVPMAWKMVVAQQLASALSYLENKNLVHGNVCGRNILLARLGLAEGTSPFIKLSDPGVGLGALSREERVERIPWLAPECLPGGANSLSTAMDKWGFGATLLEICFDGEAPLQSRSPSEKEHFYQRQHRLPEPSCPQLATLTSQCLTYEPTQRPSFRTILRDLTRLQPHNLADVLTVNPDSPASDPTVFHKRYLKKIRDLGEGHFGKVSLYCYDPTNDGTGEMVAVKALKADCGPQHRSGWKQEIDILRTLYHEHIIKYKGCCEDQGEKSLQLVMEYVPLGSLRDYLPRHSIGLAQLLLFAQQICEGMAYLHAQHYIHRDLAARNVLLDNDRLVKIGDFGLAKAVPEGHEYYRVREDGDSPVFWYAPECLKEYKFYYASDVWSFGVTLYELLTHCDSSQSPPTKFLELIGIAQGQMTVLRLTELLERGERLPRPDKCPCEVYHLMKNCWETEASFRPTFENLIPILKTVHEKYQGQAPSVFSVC

[2] = system: rhIFNγ stimulated STAT-3 phosphorylation in the A549 human epithelial cell line; test: A549 Cell Assay: Inhibition of pSTAT3; assay type: cell-based; conditions: A549 cells
Description: A549 Cell Assay: Inhibition of pSTAT3
An assay measuring the efficacy of JAK inhibitors on the functional response of recombinant human interferon γ (rhIFNγ) stimulated STAT-3 phosphorylation in the A549 human epithelial cell line.
A549 cells (ATCC #CCL-185), were plated at 30,000 cells/well in 96 well flat bottomed tissue culture plates (BD#353072) in 200 μL of growth medium (DMEM, Pfizer media prep, with 10% Fetal Bovine Serum, Sigma #F4135, 2 mM L-Glutamine, Pfizer media prep, 100 U/mL penicillin, Pfizer media prep, and 200 μg/ml streptomycin, Pfizer media prep), and cultured at 37° C., 5% CO2 incubator for 18 hours. Growth medium was removed by vacuum aspiration (V&P Scientific #vp187 bp-60), and 90 μL of pre-warmed assay medium (DMEM with 0.2% BSA, Miltenyi #130-091-376) was added to each well and incubated for 15 minutes at 37° C. 10 μL of vehicle control or test compound (final concentration range of 0.3 nM to 10 μM with 0.1% DMSO) was added to the cells. Plates were incubated at 37° C. for 1 hour. After compound incubation, 10 μL of 220 ng/mL recombinant human IFNγ (R&D Systems #285-IF, final rhIFNγ concentration of 20 ng/mL) was added to the cells and plates were incubated for 30 minutes at 37° C. Wells containing A549 cells, medium with 0.1% DMSO and no rhIFNγ were used as background controls. After rhIFNγ stimulation, media was aspirated from each well and 35 μL/well of iced-cold MSD lysis buffer containing protease and phosphatase inhibitors from Phospho-STAT3 Tyr705 assay kit (Meso-Scale Discovery #K150DID) was added to each well. Plates were incubated at 4° C. with shaking for 30 minutes. Cell lysates were assayed following the MSD Phospho-STAT3 Tyr705 assay kit protocol to detect pSTAT3.
as §1

JAK2, sequence (O60674 whole entry, species assumed): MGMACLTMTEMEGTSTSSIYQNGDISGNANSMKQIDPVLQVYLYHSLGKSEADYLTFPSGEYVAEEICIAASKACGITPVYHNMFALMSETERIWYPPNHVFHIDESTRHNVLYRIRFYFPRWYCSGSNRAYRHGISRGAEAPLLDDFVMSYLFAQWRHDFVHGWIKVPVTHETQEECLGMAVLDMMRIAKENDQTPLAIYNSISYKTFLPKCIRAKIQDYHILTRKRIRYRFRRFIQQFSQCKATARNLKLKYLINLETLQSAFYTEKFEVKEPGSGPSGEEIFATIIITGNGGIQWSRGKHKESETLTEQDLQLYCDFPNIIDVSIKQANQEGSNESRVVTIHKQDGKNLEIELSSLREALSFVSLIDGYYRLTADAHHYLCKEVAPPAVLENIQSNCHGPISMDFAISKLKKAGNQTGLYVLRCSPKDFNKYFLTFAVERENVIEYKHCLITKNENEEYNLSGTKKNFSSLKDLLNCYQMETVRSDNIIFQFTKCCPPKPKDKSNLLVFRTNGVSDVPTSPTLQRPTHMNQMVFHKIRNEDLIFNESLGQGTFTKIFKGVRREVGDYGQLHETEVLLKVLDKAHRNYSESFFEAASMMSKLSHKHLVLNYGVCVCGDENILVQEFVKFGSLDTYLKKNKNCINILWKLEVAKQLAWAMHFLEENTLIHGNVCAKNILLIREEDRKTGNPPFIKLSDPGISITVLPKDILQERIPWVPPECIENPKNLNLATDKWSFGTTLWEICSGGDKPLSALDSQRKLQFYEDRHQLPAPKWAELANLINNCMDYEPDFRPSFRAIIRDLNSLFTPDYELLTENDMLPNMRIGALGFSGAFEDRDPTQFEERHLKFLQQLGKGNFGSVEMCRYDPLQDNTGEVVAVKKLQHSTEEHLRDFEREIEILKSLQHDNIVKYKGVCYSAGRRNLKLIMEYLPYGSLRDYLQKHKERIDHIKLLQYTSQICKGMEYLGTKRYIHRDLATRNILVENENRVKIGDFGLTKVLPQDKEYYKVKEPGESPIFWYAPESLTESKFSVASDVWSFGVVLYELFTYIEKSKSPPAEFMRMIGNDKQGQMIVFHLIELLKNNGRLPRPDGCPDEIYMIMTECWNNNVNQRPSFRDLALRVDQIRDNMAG

| Compound | IC50 (JAK2) [nM] | IC50 [1] [nM] | IC50 (JAK3) [nM] | IC50 (JAK1) [nM] | IC50 (TYK2) [nM] | IC50 [2] [nM] | IC50 ([1]; T-cell) [nM] | IC50 ([2]; Homo sapiens) [nM] |
| --- | --- | --- | --- | --- | --- | --- | --- | --- |
| Cc1ccc(-c2nnc(-c3n[nH]c4cc(-c5cc(F)c(O)cc5CC(F)(F)F)nc(NCc5ccccc5N(C)S(C)(=O)=O)c34)[nH]2)cn1 [Example 166, N-{2-[({6-[5-fFuoro-4-hydroxy-2-(2,2,2-trifluoroethyl)phenyl]-3-[5-(6-methylpyridin-3-yl)-4H-1,2,4-triazol-3-yl]-1H-pyrazolo[4,3-c]pyridin-4-yl}amino)methyl]phenyl}-N-methylmethanesulfonamide] | 97.4 | 591 | 322 | 20.9 | 126 | 697 | – | – |
| 6-[5-fluoro-4-hydroxy-2-(2,2,2-trifluoroethyl)phenyl]-4-({5-methoxy-2-[methyl(methylsulfonyl)amino]benzyl}amino)-N-methyl-1H-pyrazolo[4,3-c]pyridine-3-carboxamide [Example 50] | 10.7 | – | 47.4 | – | 10.5 | 321 | – | – |
| Cc1nnc(-c2n[nH]c3cc(-c4cc(F)c(O)cc4CC(F)(F)F)nc(NCc4ccccc4N(C)S(C)(=O)=O)c23)[nH]1 [Example 164, N-{2-[({6-[5-Fluoro-4-hydroxy-2-(2,2,2-trifluoroethyl)phenyl]-3-(5-methyl-4H-1,2,4-triazol-3-yl)-1H-pyrazolo[4,3-c]pyridin-4-yl}amino)methyl]phenyl}-N-methylmethanesulfonamide] | – | – | – | – | – | – | 3900 | 3020 |
| CNC(=O)c1n[nH]c2nc(-c3cc(F)c(O)cc3CC(F)(F)F)nc(NCc3ccccc3N(C)S(C)(=O)=O)c12 [Example 94, 6-(5-Fluoro-4-hydroxy-2-(2,2,2-trifluoroethyl)phenyl)-N-methyl-4-((2-(N-methylmethylsulfonamido)benzyl)amino)-1H-pyrazolo[3,4-d]pyrimidine-3-carboxamide] | 27.7 | – | 71.2 | 5.4 | 503 | – | – | 126 |
| CCc1cc(O)c(F)cc1-c1nc(NCc2ccccc2N(C)S(C)(=O)=O)c2cn[nH]c2n1 [Example 155, N-[2-({[6-(2-Ethyl-5-fluoro-4-hydroxyphenyl)-1H-pyrazolo[3,4-d]pyrimidin-4-yl]amino}methyl)phenyl]-N-methylmethanesulfonamide hydrochloride] | 5 | – | 15.5 | 1.2 | 61 | – | – | 30.1 |
| CNC(=O)c1n[nH]c2nc(-c3cc(F)c(O)cc3CC(F)(F)F)nc(NCc3cc(F)ccc3N(C)S(C)(=O)=O)c12 [Example 104, 4-((5-fluoro-2-(N-methylmethylsulfon-amido)benzyl)amino)-6-(5-fluoro-4-hydroxy-2-(2,2,2-trifluoroethyl)phenyl)-N-methyl-1H-pyrazolo[3,4-d]pyrimidine-3-carboxamide] | 66.1 | – | 113 | 10.4 | 1380 | 292 | – | – |
| CCc1cc(O)c(F)cc1-c1cc2[nH]nc(-c3nc(C)c(C)[nH]3)c2c(NCc2ccccc2N(C)S(C)(=O)=O)n1 [Example 158, N-[2-({[3-(4,5-Dimethyl-1H-imidazol-2-yl)-6-(2-ethyl-5-fluoro-4-hydroxyphenyl)-1H-pyrazolo[4,3-c]pyridin-4-yl]amino}methyl)phenyl]-N-methylmethanesulfonamide] | 27.8 | – | 114 | 5.3 | 33.3 | – | – | 31.3 |
| CN(C)CCNC(=O)N1CCc2[nH]c(-c3n[nH]c4nc(-c5cc(F)c(O)cc5CC(F)(F)F)nc(NCc5cc(O)ccc5N(C)S(C)(=O)=O)c34)nc2C1 [Example 171, N-[2-(Dimethylamino)ethyl]-2-{6-[5-fluoro-4-hydroxy-2-(2,2,2-trifluoroethyl)phenyl]-4-({5-hydroxy-2-[methyl(methylsulfonyl)amino]benzyl}amino)-1H-pyrazolo[3,4-d]pyrimidin-3-yl}-1,4,6,7-tetrahydro-5H-imidazo[4,5-c]pyridine-5-carboxamide] | – | – | – | – | – | – | 1090 | 1580 |
| CNC(=O)c1n[nH]c2cc(-c3cc(F)c(O)cc3CC(F)(F)F)nc(NCc3ccccc3N(C)S(=O)(=O)N(C)C)c12 [Example 57] | 93.4 | – | 409 | 21.1 | 149 | 60.4 | – | – |
| CNC(=O)c1n[nH]c2cc(-c3cc(F)c(O)cc3CC(F)(F)F)nc(NCc3ccccc3N(C)S(C)(=O)=O)c12 [Example 20, 6-[5-fluoro-4-hydroxy-2-(2,2,2-trifluoroethyl)phenyl]-N-methyl-4-({2-[methyl(methylsulfon-yl)amino]benzyl}ami-no)-1H-pyrazolo[4,3-c]pyridine-3-carboxamide] | – | 31.9 | – | – | – | 18.8 | – | – |
| CCc1cc(O)cc(C)c1-c1cc2[nH]ncc2c(NCc2ccccc2N(C)S(C)(=O)=O)n1 [Example 156, N-(2-(((6-(2-Ethyl-4-hydroxy-6-methylphenyl)-1H-pyrazolo[4,3-c]pyridin-4-yl)amino)methyl)phenyl)-N-methylmethanesulfonamide] | – | – | 177 | 25.5 | 10000 | – | – | 72.4 |
| CNC(=O)c1n[nH]c2cc(-c3cc(F)c(O)cc3CC(F)(F)F)nc(NCc3ccccc3N(C)S(=O)(=O)c3cn(C)cn3)c12 [Example 59] | 23.5 | – | 112 | 5.3 | 22.6 | 290 | – | – |
| CCc1cc(O)c(F)cc1-c1cc2[nH]nc(C(=O)NC)c2c(NCc2ccccc2N(CC)S(C)(=O)=O)n1 [Example 9, 6-(2-ethyl-5-fluoro-4-hydroxyphenyl)-4-({2-[ethyl(methylsulfonyl)ami-no]benzyl}amino)-N-methyl-1H-pyrazolo[4,3-c]pyridine-3-carboxamide] | – | – | – | – | – | 14.9 | – | – |
